Experiments:
[1] = test system: ECHCG (Echinochloa crus-galli); assay: Postemergence herbicidal evaluation; format: in vivo, (L.) Beau; conditions: postemergence
Outline: (§1)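 Visual 0–9 injury scores versus control plants, covering stand, vigour, malformation, size, chlorosis and general appearance, taken four to five weeks post-spray and averaged over replicate tests. Plants were sprayed at roughly two weeks old and held on greenhouse benches.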

ORYSAT (Rice, Tebonnet) = assay: Flooded paddy, post-transplant rice tolerance; format: in vivo, Oryza sativa, (L.) Tebonnet; conditions: flooded paddy, post-transplant rice, rated 3-4 weeks after treatment, 0-9 rating scale
Outline: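 Visual 0–9 injury rating against a control, covering stand, vigor, malformation, size, chlorosis and overall appearance. Treatment was post-transplant onto flooded containers (water 1.5–3 cm deep, silt loam) holding two ten-day-old cv. Tebonnet seedlings, maintained on greenhouse benches.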

[2] = test system: ECHORC (Echinochloa oryzoides); assay: Flooded paddy, preemergence weed control; format: in vivo, Echinochloa oryzoides (Ard.) Fritsch.; conditions: rated 3-4 weeks after treatment, 0-9 rating scale
Outline: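 Scoring used a 0-9 visual scale relative to control. Before that, seeds or propagules were planted shallowly in silt loam and flooded to 1.5–3 cm, a depth maintained throughout, with greenhouse care during the test.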

[3] = test system: GLXMAW (Soybean, Williams); assay: Preemergence herbicidal evaluation; format: in vivo, Glycine max, (L.) Merr. cv Williams; conditions: rated 4-5 weeks after treatment
[4] = test system: GLXMAW (Soybean, Williams); assay: Postemergence herbicidal evaluation; format: in vivo, Glycine max, (L.) Merr. cv Williams; conditions: postemergence
Outline: as §1

ZEAMX (Corn, Field) [5] = assay: Preemergence herbicidal evaluation; format: in vivo, Zea mays, L.; conditions: rated 4-5 weeks after treatment
ZEAMX (Corn, Field) [6] = assay: Postemergence herbicidal evaluation; format: in vivo, Zea mays, L.; conditions: postemergence
Outline: as §1

[7] = test system: IPOHE (Ipomoea hederacea); assay: Preemergence herbicidal evaluation; format: in vivo, (L.) Jacq.; conditions: rated 4-5 weeks after treatment
[8] = test system: TRZAWR (Wheat, Winter, cv Riband); assay: Preemergence herbicidal evaluation; format: in vivo, Triticum aestivum; conditions: rated 4-5 weeks after treatment
Outline: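 Visual 0-9 rating versus untreated control, taken four to five weeks post-treatment, scoring stand, vigor, malformation, size, chlorosis and overall appearance. Compound applied as aqueous acetone spray to freshly seeded soil cups, then kept under standard greenhouse care.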

[9] = test system: ABUTH (Abutilon theophrasti); assay: Preemergence herbicidal evaluation; format: in vivo, Medic.; conditions: rated 4-5 weeks after treatment

Row | SMILES | ECHCG herbicidal rating ([1]; rate 0.0320 kg/ha) | ECHCG herbicidal rating ([1]; rate 0.0620 kg/ha) | herbicidal rating, ORYSAT (rice tolerance) (ORYSAT (Rice, Tebonnet); rate 0.0080 kg/ha) | herbicidal rating, ORYSAT (rice tolerance) (ORYSAT (Rice, Tebonnet); rate 0.0320 kg/ha) | herbicidal rating, ORYSAT (rice tolerance) (ORYSAT (Rice, Tebonnet); rate 0.1250 kg/ha) | herbicidal rating, ECHORC ([2]; rate 0.0080 kg/ha) | herbicidal rating, ECHORC ([2]; rate 0.0320 kg/ha) | herbicidal rating, ECHORC ([2]; rate 0.1250 kg/ha) | Preemergence herbicidal rating GLXMAW ([3]; Rate 0.0620 kg/ha) | Preemergence herbicidal rating GLXMAW ([3]; Rate 0.1250 kg/ha) | GLXMAW herbicidal rating ([4]; rate 0.0320 kg/ha) | GLXMAW herbicidal rating ([4]; rate 0.0620 kg/ha) | Preemergence herbicidal rating ZEAMX (ZEAMX (Corn, Field) [5]; Rate 0.0620 kg/ha) | Preemergence herbicidal rating ZEAMX (ZEAMX (Corn, Field) [5]; Rate 0.1250 kg/ha) | ZEAMX herbicidal rating (ZEAMX (Corn, Field) [6]; rate 0.0320 kg/ha) | ZEAMX herbicidal rating (ZEAMX (Corn, Field) [6]; rate 0.0620 kg/ha) | Preemergence herbicidal rating IPOHE ([7]; Rate 0.0620 kg/ha) | Preemergence herbicidal rating IPOHE ([7]; Rate 0.1250 kg/ha) | Preemergence herbicidal rating TRZAWR ([8]; Rate 0.0620 kg/ha) | Preemergence herbicidal rating TRZAWR ([8]; Rate 0.1250 kg/ha) | other results
1 | Cn1c(C(F)(F)F)cc(=O)n(-c2ccc3snc(C4OCC5(CO4)CO5)c3c2)c1=O (stereo not shown) [Compound 70, 1-methyl-3-(3-spiro[m-dioxane-5,2′-oxiran]-2-yl-1,2-benzisothiazol-5-yl)-6-(trifluoromethyl)uracil] | 3.0 | 4.0 | 0.0 | 0.0 | 0.0 | 0.0 | 0.0 | 0.0 | 3.0 | 9.0 | 7.0 | 8.5 | 2.0 | 9.0 | 6.5 | 7.0 | 4.0 | 7.0 | 3.0 | 7.0 | Preemergence herbicidal rating ABUTH ([9]; Rate 0.0620 kg/ha): 9.0; Preemergence herbicidal rating ABUTH ([9]; Rate 0.1250 kg/ha): 9.0
2 | Cn1c(C(F)(F)F)cc(=O)n(-c2ccc3snc(C4OC(=O)C(C)(C)O4)c3c2)c1=O (stereo not shown) [Compound 71, 3-[3-(4,4-dimethyl-5-oxo-1,3-dioxolan-2-yl)-1,2-benzisothiazol-5-yl]-1-methyl-6-(trifluoromethyl)uracil] | 1.0 | 3.0 | 0.0 | 0.0 | 0.0 | 0.0 | 0.0 | 0.0 | 2.5 | 4.5 | 4.5 | 4.5 | 5.5 | 8.0 | 4.5 | 5.0 | 7.0 | 9.0 | 4.0 | 7.0 | Preemergence herbicidal rating GLXMAW ([3]; Rate 0.2500 kg/ha): 6.0; Preemergence herbicidal rating ZEAMX (ZEAMX (Corn, Field) [5]; Rate 0.2500 kg/ha): 8.5; Preemergence herbicidal rating IPOHE ([7]; Rate 0.2500 kg/ha): 9.0; Preemergence herbicidal rating TRZAWR ([8]; Rate 0.2500 kg/ha): 8.0; Preemergence herbicidal rating ABUTH ([9]; Rate 0.0620 kg/ha): 8.0; Preemergence herbicidal rating ABUTH ([9]; Rate 0.1250 kg/ha): 9.0; Preemergence herbicidal rating ABUTH ([9]; Rate 0.2500 kg/ha): 9.0
3 | Cn1c(C(F)(F)F)cc(=O)n(-c2ccc3snc(C4OCC(CCl)O4)c3c2)c1=O (stereo not shown) [Compound 72, 3-[3-[4-(chloromethyl)-1,3-dioxolan-2-yl]-1,2-benzisothiazol-5-yl]-1-methyl-6-(trifluoromethyl)uracil] | 3.0 | 3.0 | 0.0 | 7.0 | 8.0 | 5.0 | 9.0 | 9.0 | 6.5 | 9.0 | 6.5 | 8.5 | 8.0 | 8.5 | 5.0 | 5.0 | 3.5 | 6.5 | 7.0 | 9.0 | Preemergence herbicidal rating GLXMAW ([3]; Rate 0.2500 kg/ha): 9.0; Preemergence herbicidal rating ZEAMX (ZEAMX (Corn, Field) [5]; Rate 0.2500 kg/ha): 9.0; Preemergence herbicidal rating IPOHE ([7]; Rate 0.2500 kg/ha): 8.0; Preemergence herbicidal rating TRZAWR ([8]; Rate 0.2500 kg/ha): 9.0; Preemergence herbicidal rating ABUTH ([9]; Rate 0.0620 kg/ha): 9.0; Preemergence herbicidal rating ABUTH ([9]; Rate 0.1250 kg/ha): 9.0; Preemergence herbicidal rating ABUTH ([9]; Rate 0.2500 kg/ha): 9.0
4 | Cn1c(C(F)(F)F)cc(=O)n(-c2ccc3snc(C4OCC(CO)O4)c3c2)c1=O (stereo not shown) [Compound 73, 3-[3-[4-(hydroxymethyl)-1,3-dioxolan-2-yl]-1,2-benzisothiazol-5-yl]-1-methyl-6-(trifluoromethyl)uracil] | 2.0 | 3.0 | 0.0 | 0.0 | 5.0 | 0.0 | 0.0 | 7.0 | 4.0 | 7.0 | 5.5 | 7.5 | 6.5 | 9.0 | 4.5 | 5.0 | 7.0 | 9.0 | 4.0 | 6.0 | Preemergence herbicidal rating GLXMAW ([3]; Rate 0.2500 kg/ha): 8.0; Preemergence herbicidal rating ZEAMX (ZEAMX (Corn, Field) [5]; Rate 0.2500 kg/ha): 9.0; Preemergence herbicidal rating IPOHE ([7]; Rate 0.2500 kg/ha): 9.0; Preemergence herbicidal rating TRZAWR ([8]; Rate 0.2500 kg/ha): 8.0; Preemergence herbicidal rating ABUTH ([9]; Rate 0.0620 kg/ha): 9.0; Preemergence herbicidal rating ABUTH ([9]; Rate 0.1250 kg/ha): 9.0; Preemergence herbicidal rating ABUTH ([9]; Rate 0.2500 kg/ha): 9.0
5 | CC(C)C1COC(c2nsc3ccc(-n4c(=O)cc(C(F)(F)F)n(C)c4=O)cc23)=N1 (stereo not shown) [Compound 74, 3-[3-(4-isopropyl-2-oxazolin-2-yl)-1,2-benzisothiazol-5-yl]-1-methyl-6-(trifluoromethyl)uracil] | 2.0 | 2.0 | 1.5 | 4.0 | 6.0 | 5.5 | 8.0 | 9.0 | 1.0 | 1.0 | 5.5 | 7.0 | 2.0 | 2.0 | 5.0 | 5.0 | 0.0 | 0.0 | 1.0 | 2.0 | Preemergence herbicidal rating GLXMAW ([3]; Rate 0.2500 kg/ha): 9.0; Preemergence herbicidal rating ZEAMX (ZEAMX (Corn, Field) [5]; Rate 0.2500 kg/ha): 4.0; Preemergence herbicidal rating IPOHE ([7]; Rate 0.2500 kg/ha): 8.0; Preemergence herbicidal rating TRZAWR ([8]; Rate 0.2500 kg/ha): 5.0; Preemergence herbicidal rating ABUTH ([9]; Rate 0.0620 kg/ha): 3.0; Preemergence herbicidal rating ABUTH ([9]; Rate 0.1250 kg/ha): 7.0; Preemergence herbicidal rating ABUTH ([9]; Rate 0.2500 kg/ha): 9.0
6 | Cn1c(C(F)(F)F)cc(=O)n(-c2ccc3snc(C4=NCCO4)c3c2)c1=O [Compound 75, 1-methyl-3-[3(2-oxazolin-2-yl)-1,2-benzisothiazol-5-yl]-6-(trifluoromethyl)uracil] | 3.0 | 3.0 | 2.5 | 4.5 | 6.0 | 1.5 | 4.0 | 8.5 | 0.0 | 1.0 | 5.5 | 7.0 | 1.0 | 2.0 | 4.5 | 5.0 | 0.0 | 4.0 | 0.0 | 2.0 | Preemergence herbicidal rating GLXMAW ([3]; Rate 0.2500 kg/ha): 4.0; Preemergence herbicidal rating ZEAMX (ZEAMX (Corn, Field) [5]; Rate 0.2500 kg/ha): 3.0; Preemergence herbicidal rating IPOHE ([7]; Rate 0.2500 kg/ha): 7.0; Preemergence herbicidal rating TRZAWR ([8]; Rate 0.2500 kg/ha): 7.0; Preemergence herbicidal rating ABUTH ([9]; Rate 0.0620 kg/ha): 1.0; Preemergence herbicidal rating ABUTH ([9]; Rate 0.1250 kg/ha): 1.0; Preemergence herbicidal rating ABUTH ([9]; Rate 0.2500 kg/ha): 9.0

From patent publication US6706663B2, “Herbicidal 3-heterocyclic substituted benzisothiazole and benzisoxazole compounds” (Wyeth, priority 2000, dated 2004)
